Among the data in patent publication US11566030B2, “Substituted 2,6-dihydropyrrolo[3,4-c]pyrazoles as pyruvate kinase activators” (priority 2021, dated 2023) are AC50, Emax and PKR % activation values, retold here.

As usually defined, the AC50 is the concentration giving half of the maximal activity seen.

This assay addresses T1, Human pyruvate kinase R (PKR) (Homo sapiens, UniProt P30613).
T1 construct: Human pyruvate kinase R (PKR), residues 14-574; 6xHis-8xArg-SUMO (N, cleaved yes); host or cells: E. coli
The assay can be described thus: Biochemical assay for activation of pyruvate kinase R (Kinase-Glo luminescence, ATP generation). The following applies: for Emax: read-out: PKR % activation, maximal activation level achieved with each compound relative to the activation level achieved by AG-348 @ 10 μM; for PKR % activation: maximal activation level achieved with each compound relative to the activation level achieved by AG-348 @ 10 μM. As to the method: Human pyruvate kinase R (PKR), residues 14-574, and human pyruvate kinase M2, residues 1-531, were cloned into expression plasmids and obtained from ATUM Bio (Newark, Calif.). Proteins were translated as fusions with 6×-His,8×-Arg, and SUMO at the N-terminus. A third construct of human PKR was truncated, residues 50-574, and similarly cloned for use in crystallography experiments. All proteins were cloned, expressed in E. coli, and purified using similar protocols. Cells were grown at 30° C. in Luria-Bertani broth supplemented with 0.4% glucose to OD600=0.8 and induced with 0.4 mM IPTG at 16° C. for 18 hours. Cells were harvested by centrifugation, resuspended in 50 mM potassium phosphate pH 8.0, 500 mM NaCl, 25 mM imidazole pH 8.0, and 3 mM β-mercaptoethanol. Cells were lysed using a LM20 microfluidizer from Microfluidics (Westwood, Mass.). The crude lysate was immediately supplemented with 0.2 mM phenylmethylsulfonyl fluoride (PMSF) and centrifuged at 20,000 g for 20 minutes. The soluble fraction was subsequently incubated with 2 mL Ni-NTA (GE Healthcare) per 1,000 ODs for 1 hour at 4° C. Following incubation with the Ni-NTA resin, lysate was removed by pelleting resin at 2,500 g for 3 minutes and washed 3 times with 9 bed volumes of 50 mM potassium phosphate pH 8.0, 500 mM NaCl, 25 mM imidazole, and 3 mM β-mercaptoethanol. Following the batch wash Ni-NTA resin was loaded onto a gravity column and His-tagged protein was eluted with 6 bed volumes of 10 mM Tris/HCl pH 8.0, 200 mM NaCl, 500 mM imidazole, and 3 mM β-mercaptoethanol. Eluted protein was dialyzed overnight against 10 mM Tris/HCl pH 8.0, 200 mM NaCl, and 1 mM DTT and the 6×-His-8×-Arg-SUMO-tag was cleaved using a 20:1 molar ratio of protein: 3C protease. The protein was purified by anion exchange chromatography on a HiTrapQ or MonoQ 10/100 GL column (GE Healthcare) via a linear NaCl gradient and twice by size exclusion chromatography using a Superdex S200 26/60 column (GE Healthcare) run in 10 mM Tris/HCl pH 8.0, 200 mM NaCl, 10 mM MgCl2, 1 mM DTT. Proteins were concentrated to −12 mg/mL for crystallization and flash frozen for storage.
Biochemical assay for Activation of Pyruvate Kinase R
Activation of pyruvate kinase R (PKR) and pyruvate kinase M2 (PKM2) were measured using a luminescence based measurement of ATP generation and the Kinase-Glo luminescent kinase reagent kit.
In general terms: Kinase-Glo measures the ATP left after a reaction by luminescence.

[1] abbreviates: PKR AC50 (nM), 0.1 nM PKR, 0.3 mM ADP, 0.1 mM PEP, 1% DMSO.

Each structure is given as a SMILES string. Read-outs that look alike come from different tables or passages of the source.

T1 sequence (P30613 14-574): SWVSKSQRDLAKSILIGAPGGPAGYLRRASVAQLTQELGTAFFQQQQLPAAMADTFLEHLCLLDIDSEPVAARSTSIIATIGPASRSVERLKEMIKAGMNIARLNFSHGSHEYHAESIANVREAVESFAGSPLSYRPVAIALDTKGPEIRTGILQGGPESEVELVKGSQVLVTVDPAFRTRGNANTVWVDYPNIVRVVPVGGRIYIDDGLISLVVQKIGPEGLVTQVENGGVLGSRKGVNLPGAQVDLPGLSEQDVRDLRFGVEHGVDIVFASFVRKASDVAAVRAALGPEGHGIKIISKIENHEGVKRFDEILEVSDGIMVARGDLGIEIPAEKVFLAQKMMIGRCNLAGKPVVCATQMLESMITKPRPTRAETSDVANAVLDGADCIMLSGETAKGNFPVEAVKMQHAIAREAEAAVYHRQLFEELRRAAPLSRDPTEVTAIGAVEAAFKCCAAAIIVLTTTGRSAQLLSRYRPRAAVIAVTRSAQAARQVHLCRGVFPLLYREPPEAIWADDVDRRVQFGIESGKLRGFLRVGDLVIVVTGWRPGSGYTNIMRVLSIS

Take `C[C@](CO)(C(=O)N1Cc2cn(S(=O)(=O)c3cnn(CC(F)F)c3)nc2C1)c1ccccn1` (single isomer, unassigned) [Compound 10]: the Emax was 112%. Also, under setting [1], half-maximal activity (AC50) was put at 116 nM.
`O=C([C@H](O)c1ncccc1F)N1Cc2cn(S(=O)(=O)c3ccn(CC(F)F)n3)nc2C1` (single isomer, unassigned) [Compound 28]: the Emax was determined as 85%. The activity under setting [1] was half-maximal at 3400 nM (AC50).
Take `O=C([C@@H](O)c1ncccc1F)N1Cc2cn(S(=O)(=O)c3ccn(CC(F)F)n3)nc2C1` (single isomer, unassigned) [Compound 29]: the Emax was determined as 86%. Besides, the AC50 under setting [1] is 420 nM.
As for `O=C([C@H](CO)c1ncccc1F)N1Cc2cn(S(=O)(=O)c3ccn(CC(F)F)n3)nc2C1` (single isomer, unassigned) [Compound 31], half-maximal activity (AC50) was put at 3600 nM and the Emax was determined as 45%.
The like results for `O=C([C@@H](CO)c1ncccc1F)N1Cc2cn(S(=O)(=O)c3ccn(CC(F)F)n3)nc2C1` (single isomer, unassigned) [Compound 32] were, in that order, 40 nM and 114%.
In the case of `O=C([C@H](O)c1ncccc1F)N1Cc2cn(S(=O)(=O)c3cnn(CC(F)F)c3)nc2C1` (single isomer, unassigned) [Compound 38], half-maximal activity (AC50) was put at 1800 nM and the Emax was 121%.
The like results for `O=C([C@@H](O)c1ncccc1F)N1Cc2cn(S(=O)(=O)c3cnn(CC(F)F)c3)nc2C1` (single isomer, unassigned) [Compound 39] were, in that order, 120 nM and 90%.
As for `O=C([C@H](O)c1ccccc1F)N1Cc2cn(S(=O)(=O)c3cnn(CC(F)(F)F)c3)nc2C1` (single isomer, unassigned) [Compound 40], the Emax was found to be 53%. Further, under setting [1], the activity was half-maximal at 81 nM (AC50).
Regarding `O=C([C@H](O)c1ccccc1F)N1Cc2cn(S(=O)(=O)c3cnn(CC(F)(F)F)c3)nc2C1` (single isomer, unassigned) [Compound 41], the PKR % activation stood at 40%. Besides, the half-maximal activity concentration (AC50) under setting [1] was determined as 3400 nM.
Take `O=C([C@H](CO)c1ncccc1F)N1Cc2cn(S(=O)(=O)c3cnn(CC(F)F)c3)nc2C1` (single isomer, unassigned) [Compound 42]: the Emax came out at 102%. Also, half-maximal activity under setting [1] (AC50) was put at 2100 nM.
The matching figures for `O=C([C@@H](CO)c1ncccc1F)N1Cc2cn(S(=O)(=O)c3cnn(CC(F)F)c3)nc2C1` (single isomer, unassigned) [Compound 43]: 108% and 29 nM.
In turn, `O=C([C@H](OCCO)c1ccccc1F)N1Cc2cn(S(=O)(=O)c3ccn(CC(F)(F)F)n3)nc2C1` (single isomer, unassigned) [Compound 85] came in with a PKR % activation of 103%. The compound further yielded an AC50 under setting [1] of over 10000 nM.
The matching figures for `O=C([C@H](OCCO)c1ccccc1F)N1Cc2cn(S(=O)(=O)c3ccn(CC(F)(F)F)n3)nc2C1` (single isomer, unassigned) [Compound 86]: 0% and 1.1 nM.
Consider `COCCOc1ccccc1[C@@H](CO)C(=O)N1Cc2cn(S(=O)(=O)c3cnn(CC(F)F)c3)nc2C1` (single isomer, unassigned) [Compound 92], for which the Emax was determined as 0%.
Turning to `COCCOc1ccccc1[C@H](CO)C(=O)N1Cc2cn(S(=O)(=O)c3cnn(CC(F)F)c3)nc2C1` (single isomer, unassigned) [Compound 93], half-maximal activity (AC50) was put at 120 nM and the Emax was 180%.
Consider `O=C([C@H](CO)c1ccccc1OCCO)N1Cc2cn(S(=O)(=O)c3cnn(CC(F)F)c3)nc2C1` (single isomer, unassigned) [Compound 109], for which half-maximal activity (AC50) was put at 26 nM and the Emax was determined as 63%.
The matching figures for `O=C([C@@H](CO)c1ccccc1OCCO)N1Cc2cn(S(=O)(=O)c3cnn(CC(F)F)c3)nc2C1` (single isomer, unassigned) [Compound 110]: 37 nM and 146%.
As for `C[C@@](CO)(C(=O)N1Cc2cn(S(=O)(=O)c3cnn(CC(F)F)c3)nc2C1)c1ccccn1` (single isomer, unassigned) [Compound 123], the Emax was 123%. The compound further registered an AC50 under setting [1] of over 10000 nM.
Regarding `O=C([C@H](CO)c1ccccc1)N1Cc2cn(S(=O)(=O)c3cnn(CC(F)F)c3)nc2C1` [Compound 1, (2S)-1-(2-{[1-(2,2-difluoroethyl)-1H-pyrazol-4-yl]sulfonyl}-2H,4H,5H,6H-pyrrolo[3,4-c]pyrazol-5-yl)-3-hydroxy-2-phenylpropan-1-one], the Emax was found to be 97%. For the same compound, under setting [1], the activity was half-maximal at 5.4 nM (AC50).
The matching figures for `O=C([C@H](CO)c1ccccc1F)N1Cc2cn(S(=O)(=O)c3cnn(CC(F)F)c3)nc2C1` [Compound 2, (2S)-1-(2-{[1-(2,2-difluoroethyl)-1H-pyrazol-4-yl]sulfonyl}-2H,4H,5H,6H-pyrrolo[3,4-c]pyrazol-5-yl)-2-(2-fluorophenyl)-3-hydroxypropan-1-one]: 110% and 4.7 nM.
The matching figures for `O=C([C@H](CO)c1ccccc1F)N1Cc2cn(S(=O)(=O)c3cnn(CC(F)(F)F)c3)nc2C1` [Compound 3, (2S)-2-(2-fluorophenyl)-3-hydroxy-1-(2-{[1-(2,2,2-trifluoroethyl)-1H-pyrazol-4-yl]sulfonyl}-2H,4H,5H,6H-pyrrolo[3,4-c]pyrazol-5-yl)propan-1-one]: 108% and 7.1 nM.
Regarding `O=C([C@H](O)c1ccccc1)N1Cc2cn(S(=O)(=O)c3cnn(CC(F)F)c3)nc2C1` [Compound 4, (2R)-1-(2-{[1-(2,2-difluoroethyl)-1H-pyrazol-4-yl]sulfonyl}-2H,4H,5H,6H-pyrrolo[3,4-c]pyrazol-5-yl)-2-hydroxy-2-phenylethan-1-one], the concentration at half-maximal activity (AC50) came to 22 nM and the Emax came out at 62%.
Turning to `O=C([C@H](CO)c1ccccc1F)N1Cc2cn(S(=O)(=O)c3cnn(CCF)c3)nc2C1` [Compound 5, (2S)-1-(2-{[1-(2-fluoroethyl)-1H-pyrazol-4-yl]sulfonyl}-2H,4H,5H,6H-pyrrolo[3,4-c]pyrazol-5-yl)-2-(2-fluorophenyl)-3-hydroxypropan-1-one], the Emax was 88%. For the same compound, the AC50 under setting [1] came to 2.7 nM.
For the compound `C[C@H](O)[C@@H](C(=O)N1Cc2cn(S(=O)(=O)c3cnn(CC(F)F)c3)nc2C1)c1ccccc1` [Compound 6, (2S,3S)-1-(2-{[1-(2,2-difluoroethyl)-1H-pyrazol-4-yl]sulfonyl}-2H,4H,5H,6H-pyrrolo[3,4-c]pyrazol-5-yl)-3-hydroxy-2-phenylbutan-1-one], half-maximal activity (AC50) was put at 11 nM and the Emax is 86%.
The matching figures for `C[C@@H](O)[C@@H](C(=O)N1Cc2cn(S(=O)(=O)c3cnn(CC(F)F)c3)nc2C1)c1ccccc1` [Compound 7, (2S,3R)-1-(2-{[1-(2,2-difluoroethyl)-1H-pyrazol-4-yl]sulfonyl}-2H,4H,5H,6H-pyrrolo[3,4-c]pyrazol-5-yl)-3-hydroxy-2-phenylbutan-1-one]: 17 nM and 102%.
Take `O=C(N1Cc2cn(S(=O)(=O)c3cnn(CC(F)F)c3)nc2C1)C1(c2ncccc2Cl)COC1` [Compound 8, 3-chloro-2-(3-[2-[1-(2,2-difluoroethyl)pyrazol-4-ylsulfonyl]-4H,6H-pyrrolo[3,4-c]pyrazole-5-carbonyl]oxetan-3-yl)pyridine]: the Emax turned out to be 103%. The compound further had an AC50 under setting [1] of 5.7 nM.
